“Also recorded” adds a separate entry of the source.
Columns and labels:
[1] = test system: LX-2, a human hepatic stellate cell line; assay: Mechanistic study in hepatic stellate cells (qPCR, Western, RNAseq, GSEA); format: cell-based; details: Aramchol 10 μM
Protocol: (§1) Serum-starved LX2 cells were treated with Aramchol™ (10 μM) for 24 or 48 hours. Fibrogenic gene expression and SCD-1 protein expression were measured by qPCR and Western, respectively. RNAseq was performed at 24 and 48 h in duplicate. Differential gene expression was assessed with DSeq2, while gene set enrichment analysis (GSEA) and gene ontology (GO) analyses assessed functionality of gene expression changes. Primary hepatocytes from C57BL/6 mice were harvested by perfusion and treated with Aramchol™ ([…]) for 48 hours in culture. PPAR γ mRNA expression was measured by qPCR.

[2] = test system: LX-2 human hepatic stellate cells; assay: Inhibition of collagen synthesis in stellate cells (COL1A1, PPARγ expression, collagen production); format: cell-based
Protocol: LX2 cells (150.000 cells per well) were plated in DMEM media containing antibiotics, glutamine and bovine fetal serum. After 24 hours incubation, media was changed to 0% serum and incubated for an additional period of 16 hours. Then, Aramchol™ (10 mM) was added and 24 hours later RNA was extracted with Trizol.

[3] = test system: Primary hepatocytes from C57BL/6 mice; assay: PPARγ mRNA expression in primary hepatocytes (qPCR); format: cell-based; details: Aramchol 10 μM, 48 hours
Protocol: as §1

[4] = test system: 0.1MCD-fed mice; assay: 0.1% methionine- and choline-deficient (0.1MCD) diet mouse model of NASH; format: in vivo
Text: The study described below investigates the mechanism of action of Aramchol™ and its potential effect on fibrosis using the 0.1% methionine- and choline-deficient (0.1MCD) diet mouse model of NASH.
C57BI/6 were fed the Methionine and Choline Deficient (MCD) and control diet and were sacrificed after 4 weeks. The MCD diet induces aminotransferase elevation and changes in hepatic histological features, characterized by steatosis, local inflammation, hepatocyte necrosis and fibrosis. These changes occur rapidly and are morphologically similar to those observed in human NASH. In this study the MCD diet contained 0.1% methionine to minimize and stabilize weight loss. At the end of the second week, after verification of established NASH, 0.1MCD-fed mice were treated orally by gavage with Aramchol™ (5 mg/Kg/day) or vehicle (n=10, each condition). Control diet-fed mice were also treated with vehicle for same duration (n=10). At the end of the experiment, blood and liver samples were obtained. A diagram of the experimental design is shown below: […]

[5] = test system: human NAFLD; assay: 3-month phase 2a human NAFLD study; format: in vivo
[6] = 5 mg/Kg/day orally by gavage from end of second week to week 4
[7] = 5 mg/Kg/day orally by gavage, liver

Compound: CCCCCCCCCCCCCCCCCCCC(=O)N[C@H]1CC[C@@]2(C)[C@@H](C1)C[C@@H](O)[C@@H]1[C@@H]2C[C@H](O)[C@]2(C)[C@@H]([C@H](C)CCC(=O)O)CC[C@@H]12 [Aramchol™, 3β-arachidylamido-7α, 12α-dihydroxy-5β-cholan-24-oic acid]
- cholesterol biosynthesis (Gene Set Enrichment Analysis) ([1]; 24 or 48 hours): downregulates
- collagen formation (Gene Set Enrichment Analysis) ([1]; 24 or 48 hours): downregulates
- PPARγ mRNA (RT-PCR) ([1]; 24 or 48 hours, serum-starved): upregulates
- SCD-1 mRNA (RT-PCR) ([1]; 24 or 48 hours, serum-starved): downregulates
- fibrogenic genes (RT-PCR) ([1]; 24 or 48 hours, serum-starved): downregulates
- SCD-1 protein (Western Blot, densitometry) ([1]; 24 or 48 hrs): downregulates
- PPARγ mRNA (RNASeq) ([1]; 48 hrs): upregulation
- cholesterol efflux regulatory protein ABCA1 (RNASeq) ([1]; 48 hrs): upregulated
- fibrogenic genes and SCD-1 mRNA (RNASeq) ([1]; 48 hrs): downregulation; also recorded: downregulates
- COL1A1 expression ([2]; Aramchol 10 mM, 24 hours, RNA): significantly reduced
- PPARγ expression ([2]; Aramchol 10 mM, 24 hours, RNA): up-regulation
- collagen production ([2]; relative to a DMSO control): significantly down regulates
- PPARγ mRNA expression (qPCR) [3]: does not affect
- hepatic content of diglycerides (DG) and TG ([4]; 5 mg/Kg/day orally by gavage): reduction
- GSH/GSSG ratio [4, 6]: elevates; also recorded: normalization
- collagen in the liver (liver extract) [4, 6]: significantly down regulates
- fibrosis in the liver (sirius red) [4, 6]: significantly down regulates/normalizes
- glutathione in liver [4, 6]: significantly up regulates
- infiltration and activation status of macrophages in the liver (F4/80, CD64) [4, 6]: significantly down regulates/normalizes
- steatosis in the liver (Sudan III) [4, 6]: significantly down regulates
- FA(16:1)/FA(16:0) ratio [4, 7]: marked decrease
- SCD1 activity [4, 7]: reduced
- SCD1 expression [4, 7]: marked decrease
- content of total oxFA including oxLA [4, 7]: marked reduction
- total content of monounsaturated FA (MUFA) [4, 7]: marked decrease
- hepatic fat [5]: reduced

Source: patent US20250332176A1, “TREATMENT FOR FIBROSIS AND INHIBITION OF FIBROSIS” (GALMED RESEARCH AND DEVELOPMENT LTD, priority 2022, published 2025)
